Laboratory results: patent US6414114B2, “Disulfides and thiol compounds” (Dovetail Technologies, Inc., priority 1998, dated 2002)

Key:
[1] = Solubility in acetonitrile/water; type: physicochemical; details: solvent acetonitrile/water as given in the value
MOPC-315 myeloma = details: administered along with melphalan; cited from earlier work
NS-1 mouse myeloma = details: repeated administration as monotherapy soon after inoculation with relatively low doses of tumor; cited from earlier work
Cloudman S-91 melanoma = details: melanomas already established; cited from earlier work
B16 melanoma = details: administered along with cyclophosphamide; cited from earlier work

| Compound | Solubility [1] | benefit as adjunct to chemotherapy (MOPC-315 myeloma) | survival rates (NS-1 mouse myeloma) | percent survival (Cloudman S-91 melanoma) | benefit as adjunct to chemotherapy (B16 melanoma) |
| --- | --- | --- | --- | --- | --- |
| O=C(CCNC(=O)OCc1ccccc1)NC(CS)C(=O)O (stereo not drawn) [Cbz-beta-Ala-Cys] | Soluble in 20% Acetonitrile/Water | – | – | – | – |
| O=C(CCNC(=O)OCc1ccccc1)N[C@@H](CSSC[C@H](NC(=O)CCNC(=O)OCc1ccccc1)C(=O)O)C(=O)O [Cbz-βAla-Cystine-βAla-Cbz, Cbz-beta-Ala-Cystine-beta-Ala-Cbz] | Soluble in 30% Acetonitrile/water | – | – | – | – |
| NCCC(=O)NCCSSCCNC(=O)CCN [β-alethine, Beta-alanyl cysteamine disulfide] | – | beneficial adjunct to chemotherapy | significantly increased survival rates | increase the percent survival | beneficial adjunct to chemotherapy |
